Results as given in patent publication US4388233A, “Synthetic substrates for enzyme analysis” (priority 1981, dated 1983).
Read-outs that look alike come from different tables or passages of the source. One block for each compound: values may come before it.

Assays:
[1] = system: Urokinase; assay: Enzyme kinetic / reaction rate study of synthetic substrates with urokinase; type: biochemical; conditions: for 1/V: urokinase, pH8, 37° C., Ex = 410 nm, Em = 475 nm
Excerpt: (§1) In use for enzyme analysis, following enzyme cleavage of the bond between the C7 amino group and the A moiety, a detector group is liberated. This detector group is substantially identical to the precursor D moiety (although the amido group at C7 is converted to a primary amino group) and shall be hereinafter referred to as the liberated D compound.
(§2) The liberated D compounds from the above-described inventive synthetic substrates generally fluoresce strongly in the blue to yellow region of the spectrum once irradiated with ultraviolet light, whereas the intact synthetic substrates of the present invention fluoresce more weakly and at shorter wavelengths. The presence of the liberated D compound can be qualitatively or quantitatively determined fluorometrically, or may be utilized in colorimetric assays. Synthetic substrates in accordance with the present invention preferably fluoresce at wavelengths of at least about 460 nm. The FIG. 2 structure, for example, yields a liberated D compound which fluoresces at a wavelength of 472 nm, and the FIG. 3 structure at a wavelength of 505 nm.
(§3) The inventive synthetic substrates may be used in enzyme kinetic studies. Table I, below illustrates kinetic data of several synthetic substrates in accordance with the present invention (where the liberated D compound is 7-amino-3-phenylcoumarin) with 3 different enzymes.
(§4) Table II, below, tabulates the data from three Lineweaver-Burk plots of reaction rate studies utilizing several of the inventive synthetic substrates.

[2] = system: Trypsin; assay: Enzyme kinetic / reaction rate study of synthetic substrates with trypsin; type: biochemical; conditions: for 1/V: trypsin, pH8, 37° C., Ex = 420 nm, Em = 485 nm; for Km / Vmax: Trypsin, pH 8.0, 200 ng/mL, liberated D compound 7-amino-3-phenylcoumarin
Excerpt: as §1, §2, §3, §4

[3] = Solubility of liberated detector compounds in water; conditions: in water as solvent, analogous to a buffered solution
[4] = Fluorescence properties of liberated detector compounds; type: physicochemical; conditions: for Em: fluorescence emission wavelength of detector compound; for Ex: fluorescence excitation wavelength of detector compound; for Rel. Int.: relative fluorescent intensity of detector compound
Excerpt: The presence of the liberated D compound can be qualitatively or quantitatively determined fluorometrically, or may be utilized in colorimetric assays.

[5] = system: DAP II; assay: Enzyme kinetic study of synthetic substrates with DAP II; type: biochemical; conditions: pH 5.6, rat pituitary homogenate 13.75 μg/mL protein equivalent, liberated D compound 7-amino-3-phenylcoumarin
Excerpt: as §1, §2
The inventive synthetic substrates may be used in enzyme kinetic studies. Table I, below illustrates kinetic data of several synthetic substrates in accordance with the present invention (where the liberated D compound is 7-amino-3-phenylcoumarin) with 3 different enzymes. […]

[6] = water
[7] = Urokinase, pH 8.0, 2.5 Plough units/ml, liberated D compound 7-amino-3-phenylcoumarin

Sol. [3]: 0.0012 mg/mL | Em [4]: 472 nm | Ex [4]: 368 nm | Rel. Int. [4]: 4.0
SMILES: Nc1ccc2cc(-c3ccccc3)c(=O)oc2c1 [7-amino-3-phenyl coumarin, 7-amino-3-phenylcoumarin]

Km [5]: 321 µM | Vmax [5]: 0.346 nmol/min
SMILES: Br.Br.C[C@H](NC(=O)[C@@H](N)CCCCN)C(=O)Nc1ccc2cc(-c3ccccc3)c(=O)oc2c1.O [Example VII, 7-(L-Lysyl-L-alaninamido)-3-phenylcoumarin Dihydrobromide Monohydrate]

1/V ([2]; 1/S = 1.1 (mm)^-1): 4.9 (nmol/ml/min)^-1 | 1/V ([2]; 1/S = 1.7 (mm)^-1): 6.0 (nmol/ml/min)^-1 | 1/V ([2]; 1/S = 3.4 (mm)^-1): 10.0 (nmol/ml/min)^-1 | 1/V ([2]; 1/S = 6.7 (mm)^-1): 18.3 (nmol/ml/min)^-1 | 1/V ([2]; 1/S = 12.5 (mm)^-1): 35.0 (nmol/ml/min)^-1 | Km [2]: 945 µM | Vmax [2]: 0.414 nmol/min
SMILES: N=C(N)NCCC[C@H](NC(=O)c1ccccc1)C(=O)Nc1ccc2cc(-c3ccccc3)c(=O)oc2c1 [IX, 7-(Benzoyl-L-arginamido)-3-phenylcoumarin]

Continued, compound first:

SMILES: N=C(N)NCCC[C@H](NC(=O)CNC(=O)CNC(=O)OCc1ccccc1)C(=O)Nc1ccc2cc(-c3ccccc3)c(=O)oc2c1 [Example X, 7-(Z-Glycylglycyl-L-arginamido)-3-phenylcoumarin]
1/V ([1]; 1/S = 1 (mm)^-1): 11 (nmol/ml/min)^-1 | 1/V ([1]; 1/S = 2 (mm)^-1): 13 (nmol/ml/min)^-1 | 1/V ([1]; 1/S = 3.5 (mm)^-1): 17 (nmol/ml/min)^-1 | 1/V ([1]; 1/S = 5 (mm)^-1): 22 (nmol/ml/min)^-1 | 1/V ([1]; 1/S = 8.25 (mm)^-1): 36 (nmol/ml/min)^-1 | 1/V ([1]; 1/S = 11 (mm)^-1): 42 (nmol/ml/min)^-1 | 1/V ([1]; 1/S = 12.25 (mm)^-1): 50 (nmol/ml/min)^-1 | 1/V ([1]; 1/S = 14.25 (mm)^-1): 51 (nmol/ml/min)^-1 | Km [1, 7]: 411 µM | Vmax [1, 7]: 0.137 nmol/min

SMILES: N=C(N)NCCC[C@H](NC(=O)OCc1ccccc1)C(=O)Nc1ccc2cc(-c3ccccc3)c(=O)oc2c1 [Example VIII, 7-(Z-L-Arginamido)-3-phenylcoumarin]
1/V ([2]; 1/S = 1.7 (mm)^-1): 1.45 (nmol/ml/min)^-1 | 1/V ([2]; 1/S = 3.3 (mm)^-1): 2.25 (nmol/ml/min)^-1 | 1/V ([2]; 1/S = 6.7 (mm)^-1): 4.3 (nmol/ml/min)^-1 | 1/V ([2]; 1/S = 12.5 (mm)^-1): 7.6 (nmol/ml/min)^-1 | 1/V ([2]; 1/S = 16.6 (mm)^-1): 10.2 (nmol/ml/min)^-1 | Km [2]: 574 µM | Vmax [2]: 1.264 nmol/min

SMILES: N=C(N)NCCC[C@H](NC(=O)OCc1ccc([N+](=O)[O-])cc1)C(=O)Nc1ccc2cc(-c3ccccc3)c(=O)oc2c1 [Example XII, 7-(4-NO2 -Z-L-Arginamido)-3-phenylcoumarin]
Km [2]: 193 µM | Vmax [2]: 0.174 nmol/min

SMILES: Nc1ccc2c(C(F)(F)F)cc(=O)oc2c1 [7-amino-4-trifluoro-methyl coumarin, 7-amino-4-trifluoromethylcoumarin, reference compound]
Sol. [6]: 0.017 mg/mL | Em [4]: 500 nm | Ex [4]: 390 nm | Rel. Int. [4]: 1.0
